ChEMBL document CHEMBL1201862, “PubChem BioAssay data set” (2004)
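Grown in 96-well plates, cells were treated for 48 hours with each compound at five concentrations. Insufficient inhibition: endpoint recorded as highest concentration tested. GI50: concentration for 50% inhibition of growth.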 Active and inactive are the calls of the source. Cut-off read from the data, not from the text of the source: active = GI50 up to about 1.1 µM and inactive = higher.

Columns and labels:
Assay in all cases: NCI anticancer screen, dose series, 48 h
UO-31 = system: UO-31
TK-10 = system: TK-10
OVCAR-3 = system: OVCAR-3
NCI-H23 = system: NCI-H23
OVCAR-8 = system: OVCAR-8
BT-549 = system: BT-549
SK-MEL-28 = system: SK-MEL-28
MOLT-4 = system: MOLT-4
A498 = system: A498
SK-MEL-2 = system: SK-MEL-2
IGROV-1 = system: IGROV-1
T47D = system: T47D
KM12 = system: KM12
DU-145 = system: DU-145
HT-29 = system: HT-29
SF-295 = system: SF-295
SF-268 = system: SF-268
U-251 = system: U-251
HCC 2998 = system: HCC 2998
SR = system: SR

Measured: GI50

COC(=O)Nc1nc2cc(NS(=O)(=O)c3cccs3)ccc2[nH]1
inactive: UO-31 30.1 µM | TK-10 25.9 µM | OVCAR-3 14.6 µM | NCI-H23 30.5 µM | OVCAR-8 36.4 µM | BT-549 71.8 µM | SK-MEL-28 19.3 µM | MOLT-4 13.6 µM | A498 28 µM | SK-MEL-2 76.6 µM | IGROV-1 10.9 µM | T47D 28.7 µM | KM12 13.7 µM | DU-145 47.3 µM | HT-29 23 µM | SF-295 24.9 µM | SF-268 38.3 µM | U-251 30.4 µM

CC(C)=C[C@H]1CCC2(OCCO2)[C@]1(C)CO
inactive: HCC 2998 > 100 µM | UO-31 > 100 µM | TK-10 > 100 µM | NCI-H23 > 100 µM | OVCAR-8 > 100 µM | BT-549 > 100 µM | SK-MEL-28 > 100 µM | A498 > 100 µM | SK-MEL-2 > 100 µM | IGROV-1 > 100 µM | T47D > 100 µM | KM12 > 100 µM | SF-295 > 100 µM | SF-268 > 100 µM

Oc1ccc(Cc2cc(Cc3ccc(O)cc3)cc(Cc3ccc(O)cc3)c2)cc1
inactive: HCC 2998 > 50 µM | UO-31 > 50 µM | TK-10 > 50 µM | OVCAR-3 > 50 µM | OVCAR-8 > 50 µM | BT-549 > 50 µM | SK-MEL-28 > 50 µM | SR > 50 µM | MOLT-4 > 50 µM | A498 > 50 µM | SK-MEL-2 > 50 µM | IGROV-1 > 50 µM | KM12 > 50 µM | DU-145 > 50 µM | HT-29 > 50 µM | SF-295 > 50 µM | SF-268 > 50 µM | U-251 > 50 µM

CC(CO)C1C[C@H](O)[C@@]2(C)CC(=O)C=C(CO)[C@@H]2C1 (stereo partly specified)
inactive: HCC 2998 > 100 µM | UO-31 > 100 µM | TK-10 > 100 µM | OVCAR-3 > 100 µM | NCI-H23 > 100 µM | OVCAR-8 > 100 µM | BT-549 > 100 µM | SK-MEL-28 > 100 µM | MOLT-4 > 100 µM | A498 > 100 µM | SK-MEL-2 > 100 µM | IGROV-1 > 100 µM | T47D > 100 µM | KM12 > 100 µM | DU-145 > 100 µM | HT-29 > 100 µM | SF-295 > 100 µM | SF-268 > 100 µM | U-251 > 100 µM

Cc1c(/C=N/NC(=S)N2CCCCC2)c(=O)n(-c2ccccc2)n1C
inactive: HCC 2998 75 µM | UO-31 42.4 µM | TK-10 61.2 µM | OVCAR-3 48.4 µM | NCI-H23 > 100 µM | OVCAR-8 42.8 µM | BT-549 > 100 µM | SK-MEL-28 75.2 µM | SR > 100 µM | MOLT-4 31.3 µM | A498 24.3 µM | IGROV-1 > 100 µM | KM12 97.1 µM | DU-145 > 100 µM | HT-29 73.8 µM | SF-295 40.7 µM | SF-268 29.5 µM | U-251 83.2 µM

Cc1cc2c(cc1C(=O)c1ccc(N)cc1)OCO2
inactive: UO-31 77.8 µM | TK-10 28.2 µM | NCI-H23 > 100 µM | OVCAR-8 > 100 µM | BT-549 48.8 µM | SR 5.08 µM | MOLT-4 40.1 µM | SK-MEL-2 23.9 µM | IGROV-1 33.5 µM | T47D 28 µM | KM12 21.4 µM | DU-145 55 µM | HT-29 22.9 µM | SF-295 21.9 µM | SF-268 31.2 µM | U-251 24.9 µM
active: OVCAR-3 0.347 µM

CC(C(O)c1ccccc1)N(C)/N=N/c1nc2c([nH]1)c(=O)n(C)c(=O)n2C (stereo unspecified)
inactive: HCC 2998 39.9 µM | UO-31 > 100 µM | TK-10 64.1 µM | OVCAR-3 > 100 µM | NCI-H23 60.8 µM | OVCAR-8 > 100 µM | BT-549 > 100 µM | SK-MEL-28 > 100 µM | MOLT-4 38.3 µM | SK-MEL-2 > 100 µM | IGROV-1 35.2 µM | T47D 85.5 µM | KM12 46.2 µM | DU-145 99.3 µM | HT-29 39.6 µM | SF-295 > 100 µM | SF-268 > 100 µM | U-251 > 100 µM

COc1cc2c(cc1O)CC[n+]1cc3c(OC)c(OC)ccc3cc1-2
inactive: HCC 2998 > 100 µM | UO-31 > 100 µM | TK-10 > 100 µM | OVCAR-3 59.4 µM | NCI-H23 62.5 µM | OVCAR-8 > 100 µM | BT-549 47.3 µM | SK-MEL-28 > 100 µM | MOLT-4 > 100 µM | A498 > 100 µM | SK-MEL-2 > 100 µM | IGROV-1 > 100 µM | T47D 94.4 µM | KM12 76.7 µM | DU-145 > 100 µM | HT-29 > 100 µM | SF-295 > 100 µM | SF-268 > 100 µM | U-251 35.6 µM
